Data set [1] in a line: Fluorescence assay of purified proteins (excitation/emission). The settings on record: protein 10 μM in 1×PBS. In kind it is physicochemical. Here is the method:
100 μL of buffer (1×PBS) containing the protein purified in Example 1 (final concentration: 10 μM) was dispensed into a 96-well plate (SPL Cell Culture Plate, 96 well (SPL, Cat #32096)). Afterward, a fluorescence signal level was detected by fluorescence assay using a Thermo Scientific™ Varioskan™ Flash Multimode Reader.

The nature of data set [2]: Bioluminescence assay of purified proteins with Co-h substrate (BRET). It counts as physicochemical. The conditions noted are these: protein 1 μM, Co-h 50 μM, 1×PBS. Here is the method: In addition, 100 μL of buffer (1×PBS) containing the protein purified in Example 1 (final concentration: 1 μM) was dispensed into a 96-well plate (SPL Cell Culture Plate, 96 well (SPL, Cat #30196)), and bioluminescence assay was then performed using 50 μL of buffer (1×PBS) containing a Co-h substrate solution (final concentration: 50 μM), which is a wild-type 2-deoxy derivative. Bioluminescence intensity was immediately measured at a wavelength of 300 to 800 nm using a Thermo Scientific™ Varioskan™ Flash Multimode Reader.
(In general: Bioluminescence resonance energy transfer reports proximity on the nanometre scale.)

A further data set deals with singlet oxygen. Put plainly: ROS generation: singlet oxygen measured by decrease of ADPA fluorescence. In kind it is biochemical. The protocol:
A ROS-generating effect of the RLuc8-MS protein was confirmed using 100 μL of buffer (50 mM HEPES-KOH, 24° C., pH 7.4) containing RLuc8-MS protein (final concentration: 10 μM), anthracene-9,10-dipropionic acid (ADPA, Abcam., UK; final concentration: 50 μM) whose fluorescence intensity decreases in the presence of singlet oxygen, flavin mononucleotide (FMN) (final concentration: 150 μM) and a Co-h substrate solution. The rate of decrease in fluorescence intensity was measured at the excitation wavelength of 380 nm and the emission wavelength of 430 nm of ADPA using a plate reader.
a ROS-generating effect of the RLuc8-MS protein was measured using RLuc8-MS (final concentration: 10 μM) and ADPA (final concentration: 50 μM) whose fluorescence intensity decreases in the presence of singlet oxygen.
Here, the active oxygen generation rate of each protein was measured using 100 μL of buffer (50 mM HEPES-KOH, 24° C., pH 7.4) containing FMN (final concentration: 150 μM) and a Co-h substrate solution (final concentration: 150 μM).
The rate of decrease in fluorescence intensity was measured at the excitation wavelength of 370 nm and the emission wavelength of 420 nm of DHE using a plate reader. In addition, the rate of decrease in fluorescence intensity was measured at the excitation wavelength of 380 nm and the emission wavelength of 430 nm of ADPA using a plate reader.
A ROS generation rate was measured using 100 μL of buffer (50 mM HEPES-KOH, 24° C., pH 7.4) containing the KR protein, RLuc8.6-KR protein (final concentration: 10 μM) and ADPA (final concentration: 50 μM) whose fluorescence intensity decreases in the presence of singlet oxygen.
A ROS generation rate was measured using 100 μL of buffer (50 mM HEPES-KOH, 24° C., pH 7.4) containing MS, RLuc8-MS (final concentration: 10 μM), ADPA (final concentration: 50 μM) whose fluorescence intensity decreases in the presence of singlet oxygen and FMN (final concentration: 150 μM).
After irradiation with light at 10 mW/cm^2 for 30 minutes, the rate of decrease in fluorescence intensity was measured at the excitation wavelength of 380 nm and the emission wavelength of 430 nm of ADPA using a plate reader.
A ROS generation rate was measured using 100 μL of buffer (50 mM HEPES-KOH, 24° C., pH 7.4) containing the KR protein, RLuc8.6-KR protein (final concentration: 10 μM) and ADPA (final concentration: 50 μM) whose fluorescence intensity decreases in the presence of singlet oxygen and a Co-h substrate solution (final concentration: 150 μM).
A ROS generation rate was measured using 100 μL of buffer (50 mM HEPES-KOH, 24° C., pH 7.4) containing MS, RLuc8-MS (final concentration: 10 μM), ADPA (final concentration: 50 μM) whose fluorescence intensity decreases in the presence of singlet oxygen, FMN (final concentration: 150 μM) and a Co-h substrate solution (final concentration: 150 μM).
The rate of decreasing fluorescence intensity was measured at the excitation wavelength of 380 nm and the emission wavelength of 430 nm of ADPA using a plate reader. […]

For another data set, the system named is MCF-10A. Put plainly: Cell death with Co-h substrate by cell type (SYTOX Green or EthD-1/DAPI). In kind it is cell-based, human. The conditions noted are these: protein 10 μM, Co-h 150 μM for 5 minutes. Here is the method:
(§1) The cells were seeded at 5×10^5 cells/mL in 96-well plates (SPL Cell Culture Plate, 96 well (SPL, Cat #30096)), and cultured at 37° C. for 24 hours (overnight). After the culture for 24 hours, the cells were washed with FBS & phenol red-free media, and 100 μL of FBS & phenol red-free media containing a purified protein (final concentration: 10 μM) was added, followed by reaction at 37° C. for 24 hours.
(§2) Subsequently, the cells were washed with FBS & phenol red-free media, and 100 μL of FBS & phenol red-free media was added. 100 μL of FBS & Phenol red-free media (RPMI) containing a Co-h substrate solution (final concentration: 150 μM) was added, followed by reaction at 37° C. for 5 minutes.
(§3) After the reaction, 50 μL of SYTOX Green (final concentration: 261 nM) or 90 μL of ethidium homodimer (EthD-1) (final concentration 1×), which stains DNA of dead cells, was added, followed by reaction at 37° C. for 30 minutes. 10 μL of DAPI staining DNA of live cells was added, followed by reaction for 5 minutes. Cell death was confirmed by observing KillerRed, SYTOX Green, MiniSOG, EthD-1 and DAPI fluorescence using a confocal microscope.

A further data set deals with BT-474. The description is as above. It counts as cell-based, human. The conditions noted are these: BT-474, protein 10 μM, Co-h 150 μM for 5 minutes. Here is the method: as §1, §2, §3

“And” between values parts separate entries of the source, which are not always exact repeats. Equal entries are not always repeated.

With “MS: first protein MiniSOG, ROS-generating protein (singlet oxygen), expressed from pRSET-MiniSOG, 13 kDa [reference compound]”, in data set [1], the “emission wavelength (fluorescence)” value was 500 nm and 528 nm; the excitation wavelength was determined as 448 nm. The “emission in bioluminescence assay (BRET)” value in data set [2] was 500 nm. Moreover, the “singlet oxygen generation rate after light irradiation” value in the data set on singlet oxygen (10 mW/cm^2, 30 minutes, no substrate, protein 10 μM, ADPA) was “higher singlet oxygen generation rate”. For the same substance, the “singlet oxygen generation rate by Co-h reaction after ROS scavenger treatment” value in the data set on singlet oxygen (RLuc8-MS 10 μM, Co-h 150 μM 30 minutes, SOD 800 U/ml, sodium azide 100 mM or D-mannitol 100 mM) is on record as “lowest when sodium azide was treated”.

Take “RLuc8-MS: fusion protein of RLuc8 and MiniSOG without lead peptide, 53 kDa”: in the data set with singlet oxygen (Co-h 150 μM, 30-min reaction, without light irradiation, protein 10 μM, ADPA), the “singlet oxygen generation rate after Co-h substrate reaction” value is recorded as “highest singlet oxygen generation rate”. Further, in the data set on singlet oxygen (protein 10 μM, ADPA 50 μM, FMN 150 μM, substrate reaction time 5 minutes), the “Co-h concentration until which the singlet oxygen generation rate increased, then constantly maintained” value is 150 µM. Further, the “reaction time with Co-h until which the singlet oxygen generation rate increased, then constantly maintained” value in the data set with singlet oxygen (protein 10 μM, Co-h 150 μM, ADPA) came out at 20 min. Further, the “cell death with Co-h substrate” value in the data set with MCF-10A and with BT-474 was “none of the six breast cancer cell lines were killed” in each case.
